According to patent publication EP0492277A2, “Cephalosporin derivatives” (F. HOFFMANN-LA ROCHE AG, priority 1990, dated 1992):

Columns and labels:
Assay in all cases: MIC, Agar Dilution Method
Format in all cases: cell-based
Cit. freundi BS-16 = system: Cit. freundi BS-16
Procedure: (§1) In vitro activity of the compounds of the present invention was measured by the Minimum Inhibitory Concentration (MIC) in micrograms/ml utilizing the Agar Dilution Method, which is well known in the art, against a variety of gram-negative and gram-positive organisms.

E. coli 257 = system: E. coli 257
Procedure: as §1

E. coli ATCC 25922 = system: E. coli ATCC 25922
Procedure: as §1

E. coli TEM-1 = system: E. coli TEM-1
Procedure: as §1

Enter. cloacae 5699 = system: Enter. cloacae 5699
Procedure: as §1

Enter. cloacae P99 = system: Enter. cloacae P99
Procedure: as §1

K. pneumoniae A = system: K. pneumoniae A
Procedure: as §1

Prot. mirabilis 90 = system: Prot. mirabilis 90
Procedure: as §1

Prot. vulgaris 1028 BC = system: Prot. vulgaris 1028 BC
Procedure: as §1

Prot. vulgaris ATCC 6380 = system: Prot. vulgaris ATCC 6380
Procedure: as §1

Ps. aeruginosa 18SH = system: Ps. aeruginosa 18SH
Procedure: as §1

Ps. aeruginosa 5712 = system: Ps. aeruginosa 5712
Procedure: as §1

Ps. aeruginosa 765 = system: Ps. aeruginosa 765
Procedure: as §1

Ps. aeruginosa 8780 = system: Ps. aeruginosa 8780
Procedure: as §1

[1] = system: Ps. aeruginosa ATCC 27853
Procedure: as §1

Ser. marcescens 1071 = system: Ser. marcescens 1071
Procedure: as §1

Ser. marcescens SM = system: Ser. marcescens SM
Procedure: as §1

Staph. aureus 1059B = system: Staph. aureus 1059B
Procedure: as §1

Staph. aureus 67 = system: Staph. aureus 67
Procedure: as §1

Staph. aureus 753 = system: Staph. aureus 753
Procedure: as §1

Staph. aureus ATCC 29213 = system: Staph. aureus ATCC 29213
Procedure: as §1

Staph. aureus Smith = system: Staph. aureus Smith
Procedure: as §1

Str. faecalis ATCC 29212 = system: Str. faecalis ATCC 29212
Procedure: as §1

Str. pneumoniae 6301 = system: Str. pneumoniae 6301
Procedure: as §1

Str. pyogenes 4 = system: Str. pyogenes 4
Procedure: as §1

Substance | IN VITRO MIC (Cit. freundi BS-16) | IN VITRO MIC (E. coli 257) | IN VITRO MIC (E. coli ATCC 25922) | IN VITRO MIC (E. coli TEM-1) | IN VITRO MIC (Enter. cloacae 5699) | IN VITRO MIC (Enter. cloacae P99) | IN VITRO MIC (K. pneumoniae A) | IN VITRO MIC (Prot. mirabilis 90) | IN VITRO MIC (Prot. vulgaris 1028 BC) | IN VITRO MIC (Prot. vulgaris ATCC 6380) | IN VITRO MIC (Ps. aeruginosa 18SH) | IN VITRO MIC (Ps. aeruginosa 5712) | IN VITRO MIC (Ps. aeruginosa 765) | IN VITRO MIC (Ps. aeruginosa 8780) | IN VITRO MIC [1] | IN VITRO MIC (Ser. marcescens 1071) | IN VITRO MIC (Ser. marcescens SM) | IN VITRO MIC (Staph. aureus 1059B) | IN VITRO MIC (Staph. aureus 67) | IN VITRO MIC (Staph. aureus 753) | other results
[6R-[6a,7β(Z)]]-7-[[(2-Amino-4-thiazolyl)[(carboxymethoxy)imino]acetyl]amino]-3-[[4-(3-carboxy-1-cyclopropyl-6-fluoro-1,4-dihydro-4-oxo-7-quinolinyl)-1-piperazinyl]methyl]-8-oxo-5-thia-1-azabicyclo[4.2.0]-oct-2-ene-2-carboxylic acid sodium salt [Compound B] | 1 µg/mL | 0.25 µg/mL | 0.5 µg/mL | 0.5 µg/mL | 1 µg/mL | 0.25 µg/mL | 1 µg/mL | 2 µg/mL | 1 µg/mL | 0.25 µg/mL | 4 µg/mL | 32 µg/mL | 8 µg/mL | 8 µg/mL | 16 µg/mL | 2 µg/mL | 1 µg/mL | 2 µg/mL | 32 µg/mL | 8 µg/mL | IN VITRO MIC (Staph. aureus ATCC 29213): 8 µg/mL; IN VITRO MIC (Staph. aureus Smith): 8 µg/mL; IN VITRO MIC (Str. faecalis ATCC 29212): 16 µg/mL; IN VITRO MIC (Str. pneumoniae 6301): 0.25 µg/mL; IN VITRO MIC (Str. pyogenes 4): 0.125 µg/mL
[6R-[6α,7β(Z)]]-7-[[(2-Amino-4-thiazolyl)[(1-carboxyl-1-methylethoxy)imino]acetyl]amino]-3-[[4-(3-carboxy-1-cyclopropyl-6-fluoro-1,4-dihydro-4-oxo-7-quinolinyl)-1-piperazinyl]methyl]-8-oxo 5-thia-1-azabicyclo[4.2.0]-oct-2-ene-2-carboxylic acid sodium salt [Compound A] | 0.125 µg/mL | 0.25 µg/mL | 0.25 µg/mL | 0.5 µg/mL | 1 µg/mL | 0.5 µg/mL | 0.5 µg/mL | 2 µg/mL | 1 µg/mL | 0.5 µg/mL | 2 µg/mL | 16 µg/mL | 8 µg/mL | 8 µg/mL | 8 µg/mL | 1 µg/mL | 1 µg/mL | 4 µg/mL | 16 µg/mL | 8 µg/mL | IN VITRO MIC (Staph. aureus ATCC 29213): 8 µg/mL; IN VITRO MIC (Staph. aureus Smith): 8 µg/mL; IN VITRO MIC (Str. faecalis ATCC 29212): 8 µg/mL; IN VITRO MIC (Str. pneumoniae 6301): 0.25 µg/mL; IN VITRO MIC (Str. pyogenes 4): 0.25 µg/mL
